The values below come from US20250144101A1, “LYSOSOMAL DYSFUNCTION IN NEUROLOGICAL AND PSYCHIATRIC DISORDERS” (The Johns Hopkins University, priority 2022, published 2025).

The subject of one assay is α-galactosidase A. The settings on record: cells from patients with Fabry disease; cited from earlier work.
Assay [1] deals with lymphoblasts from BD patients with a Cln3 mutation. Kind of assay: LAMP1 staining of BD/JNCL patient lymphoblasts. Type of assay: cell-based, human. The procedure:
(§1) LAMP1 staining: Lymphoblasts were fixed with methanol and incubated overnight at 4° C. with anti-human LAMP1 antibody (1:400, Cell Signaling Technology) followed by secondary antibody (Alexa Fluor 488 donkey anti-rabbit IgG, 1:1000, Thermo Fisher Scientific). Neuronal cells differentiated from iPS cells were fixed with 4% paraformaldehyde (PFA) and incubated overnight at 4° C. with anti-human LAMP1 antibody (1:400, Cell Signaling Technology) followed by a secondary antibody (Alexa Fluor 488 donkey anti-rabbit IgG, 1:1000, Thermo Fisher Scientific). White blood cells from mice were fixed with methanol and incubated overnight at 4° C. with LAMP1 antibody (1:1000, Abcam) followed by a secondary antibody (Alexa Fluor 488 donkey anti-rabbit IgG, 1:1000, Thermo Fisher Scientific). KEYENCE BZ-X710 and BX-Z analyzer software were used for imaging quantification.

The subject of another assay is PLA2G7. Kind of assay: RNA-sequencing in iPS cell-derived neurons: PLA2G7 expression. Type of assay: cell-based. The settings on record: WT and CLN3 KO human iPS cell-derived neurons, treated 2 weeks vs mock, FIG. 5B. The source says:
(§2) RNA-sequencing in iPS cell-derived neurons: Cells were differentiated from iPS cells and treated either with 0.1% DMSO or Compound A for 2 weeks. RNAs were extracted using RNeasy Mini Kit (QIAGEN). The libraries for RNA-sequencing were constructed by SMART-Seq v4 Ultra Low Input RNA Kit (Takara bio).

For assay [2], the system named is lymphoblasts from BD patients with a Cln3 mutation. Kind of assay: Cellular autofluorescence (AF) in BD/JNCL patient lymphoblasts by flow cytometry. Type of assay: cell-based, human. The procedure: Autofluorescence (AF): AF levels in human blood cells were measured in 30,000 cells using flow cytometry at FL-1 with the BD FACSCalibur™ (BD Biosciences) (Excitation; 488 nm, Emission; 530±15 nm) (for FIGS. 1A-1C). AF levels in lymphoblasts were measured in 20,000 cells using flow cytometry with Attune Flow Cytometer (Thermo Fisher Scientific) (Excitation; 488 nm, Emission; 530 nm) (for FIGS. 2A and 2B).
A general note: A flow cytometer gives signals particle by particle.

Assay [3] deals with Cln3−/− mice. Briefly: LAMP1 staining of peripheral white blood cells, BD animal model. Type of assay: in vivo. The settings on record: CLN3 knockout (KO) mice, FIG. 4C. The procedure: as §1
Isolation of white blood cells from peripheral blood of mice: 20 μL of blood of mice was lysed with ACK lysing buffer (Lonza) for 1 min. After washing, cells were resuspended with RPMI.

A further assay deals with PLA2G4A. Kind of assay: RNA-sequencing in iPS cell-derived neurons: PLA2G4A expression. The class given is cell-based. The settings on record: WT and CLN3 KO human iPS cell-derived neurons, treated 2 weeks vs mock, FIG. 5A.
Description: as §2

The test system of assay [4] is Cln3−/− mice. Briefly: Novel object recognition test, BD animal model. Type of assay: in vivo. The settings on record: CLN3 knockout (KO) mice, FIG. 4D. The procedure:
Novel Object Recognition Test (NORT): The test was carried out according to the previously validated method (Hatayama et al., Neuroscience 265 (2014) 217-25). All mice were habituated for 1 hour to the NORT arena one day before the test day. On the day of testing, the mice were given two 5-min trials (T1 with two identical objects and T2 with a familiar object from T1 and a novel object), separated by 1-hour interval. The discrimination index (DI) ((time spent exploring the novel object−time spent exploring the familiar object)/total exploration time) was calculated for T2 trials.

Assay [5] concerns animal model of GM1 gangliosidosis. The settings on record: cited from earlier work.
Assay [6] relates to Neuronal cells differentiated from Cln3 mutant iPSCs. Kind of assay: LAMP1 staining of neuronal cells differentiated from Cln3 mutant iPSCs. The class given is cell-based, human. The settings on record: 0.4-10 μM, n=2-3, FIG. 2D. The protocol:
as §1

As to `OC[C@H]1NC[C@H](O)[C@@H](O)[C@H]1O` [1-deoxygalactonojirimycin (DGJ), 1-deoxygalactonojirimycin], in the assay with α-galactosidase A, the “residual α-galactosidase A activity” value is listed as “enhance residual α-galactosidase A activity”.
Regarding `CC(C)CN1CCCn2c1nc1ccc(NCCN(C)C)cc1c2=O` [Compound A, 8-{[2-(dimethylamino)ethyl]amino}-1-(2-methylpropyl)-1,2,3,4-tetrahydro-6H-pyrimido[2,1-b]quinazolin-6-one], the “elevated LAMP1 signal in Batten disease (BD) lymphoblasts” value in assay [1] (FIG. 4B) is “amelioration of elevated LAMP1 signal”. Further, the “expression of PLA2G7” value with PLA2G7 is “significantly influenced the expression of PLA2 genes”. Besides, in assay [2] (FIG. 4A), the “elevated autofluorescence (AF) in Batten disease (BD) lymphoblasts” value was “amelioration of elevated autofluorescence (AF)”. Moreover, the “elevated LAMP1 signal in peripheral white blood cells of BD mice” value with Cln3−/− mice [3] is recorded as “amelioration of elevated LAMP1 signal”. Further, the “expression of PLA2G4A” value in the assay on PLA2G4A is given as “significantly influenced the expression of PLA2 genes”. The “cognitive deficits (novel object recognition test) of BD mice” value in the assay with Cln3−/− mice [4] is on record as “Amelioration of cognitive deficits”.
Consider `CCCCCCCCNC1C=C(CO)C(O)C(O)C1O` (stereo not drawn) [N-octyl 4-epi-β-valienamine (NOEV), N-octyl 4-epi-β-valienamine], for which the “residual activity in the brain” value in assay [5] is “increased residual activity in the brain”.
For the molecule `CC(C)c1nc(N(C)S(C)(=O)=O)nc(-c2ccc(F)cc2)c1/C=C/[C@@H](O)C[C@@H](O)CC(=O)O` [rosuvastatin], the “anti-LAMP1 staining of JNCL patient lymphoblasts” value in [1] (10 μM, n=3, FIG. 2C) is “decreased it”. The “lysosomal deficits found in BD lymphoblasts (LAMP1 expression and AF levels)” value in assay [1] (cites FIGS. 2C, 2D) was “ameliorate the lysosomal deficits”. Besides, the “elevated autofluorescence (AF) of JNCL patient lymphoblasts” value in [2] (10 μM, FIG. 2B) is given as “decreased it”. In addition, in assay [6], the “anti-LAMP1 staining of neuronal cells differentiated from Cln3 mutant iPSCs” value is recorded as “dose-dependently decreased it”.
